Measured values published in PubChem BioAssay AID1963835 (Molecular Pharmacology Branch, DTP, NCI, 2024).
“And” between values parts separate entries of the source, which are not always exact repeats. Identical values can stand only once.

Test system: 699152-130-R-J1-PDC complex spheroid viability
Experiment: Anticancer human tumor 699152-130-R-J1-PDC patient-derived pancreatic carcinoma cell line growth inhibition [POLQ]
Conditions: for viability, T/C: stronger effect = lower value
Procedure: Multicellular complex tumor spheroid response to Polymerase (POL) inhibitors (novobiocin, ART-558, RP6685) in combination with a variety of drugs and investigational agents in selected tumor cell lines
The POL inhibitors (novobiocin, ART-558, and RP6685) were evaluated both individually and in combination with standard of care and investigational anticancer small molecules within a complex spheroid model of solid tumors. . Complex spheroids include a stromal component modeled by human endothelial cells (HUVEC) and fibroblasts modeled by human mesenchymal stem cells (MSCs). The concentration ranges selected for each drug and investigational agent were based upon clinically achievable concentrations if the clinical Cmax of the agent was known.
Compounds. The drugs and investigational agents: novobiocin (NSC847541), ART-558 (NSC835418), RP-6685 (NSC848927), peposertib (NSC802822), ceralasertib (NSC780249), elimusertib (NSC800525), camonsertib (NSC841442), AZD-1390 (NSC803789), olaparib (NSC753686), talazoparib (NSC767125), rucaparib (NSC756644), sotorasib (NSC818433), MRTX-1133 (NSC836407), SN-38 (NSC673596), topotecan (NSC609699), epotoside (NSC141540), doxorubicin (NSC123127), gemcitabine (NSC613327), 5-fluorouracil (NSC19893), paclitaxel (NSC125973), vemurafenib (NSC761431), MSA-2 (NSC828583), SN-011 (NSC837082), adavosertib (NSC754352), prexasertib (NSC758257), carboplatin (NSC241240) and oxaliplatin (NSC266046), were obtained from the National Cancer Institute (NCI) Developmental Therapeutics Program Chemical Repository (21). The FDA-approved anticancer drug set is available from the Developmental Therapeutics Program at https://dtp.cancer.gov/organization/dscb/obtaining/. […] The stock solutions were prepared in dimethyl sulfoxide (DMSO, Sigma-Aldrich, St. Louis, MO, cat. D2650), except for the platinum compounds which were prepared in saline (Quality Biological, Gaithersburg, MD, cat. 114-055-101), at 800-fold the tested concentration and stored at -70 degrees C prior to their use. All drugs and investigational agents were tested over a range starting from a high concentration at or near the clinical Cmax and decreasing in half-log increments. If the clinical Cmax for an agent had not been determined, the highest concentration tested was 10 microM, except for SN-38, which was tested at a high concentration of 1 microM.
Cell Culture. All cells were maintained in an incubator at 37 degrees C and 5% CO2 with 95% humidity. The PDC lines were cultured according to standard operating procedures established by the NCI PDMR (https://pdmr.cancer.gov). Table 3 of the manuscript, lists the cell lines along with the number of the three cell types plated to form the mct-spheroids and media for tumor cell growth. After thawing, all PDC lines, except 997537-175-T-J1-PDC and 415267-285-R-J2-PDC, were cultured in Matrigel-coated flasks prepared with a working solution of 1X Ham's F-12 nutrient mix, without supplementation (Thermo Fisher Scientific, cat. 11765054), 100 U/mL penicillin-streptomycin (Thermo Fisher Scientific, cat. 15140122), and 2.5% Matrigel (Corning Inc., Corning, NY, cat. 354248) for the first three passages. The two PDC lines 997537-175-T-J1-PDC and 415267-285-R-J2-PDC were cultured on uncoated flasks. The 857933-349-R-J2-PDC line was cultured in 6C/Colon 1B media containing advanced DMEM/F-12 (Thermo Fisher Scientific, cat. 12634028), 10 mM HEPES (Thermo Fisher Scientific, cat. 15630080), 1X GlutaMAX supplement (Thermo Fisher Scientific, cat. 35050061), 0.1 mg/mL primocin (InvivoGen, San Diego, CA, cat. ant-pm-2), 10% defined fetal bovine serum, heat inactivated (HyClone Laboratories Inc., Logan, UT, cat. SH30070.03HI), 50% L-WRN conditioned media (ATCC, cat. CRL-3276), 1.25 mM N-Acetyl-L-cysteine (Sigma-Aldrich, cat. A9165), 10 mM nicotinamide (Sigma-Aldrich, cat. N0636), 1X B-27 supplement (Thermo Fisher Scientific, cat. 17504044), 1X N-2 supplement (Thermo Fisher Scientific, cat. […]

[1] = curve of first compound, second compound 0.0316 µM
[2] = curve of first compound, second compound 0.1 µM
[3] = curve of first compound, second compound 0.316 µM
[4] = curve of first compound, second compound 1 µM
[5] = curve of first compound, second compound 3.16 µM
[6] = curve of first compound, second compound 10 µM
[7] = second compound 0.0316 µM, first compound 0.0316 µM
[8] = second compound 0.0316 µM, first compound 0.1 µM
[9] = second compound 0.0316 µM, first compound 0.316 µM
[10] = second compound 0.0316 µM, first compound 1 µM
[11] = second compound 0.1 µM, first compound 0.0316 µM
[12] = second compound 0.1 µM, first compound 0.1 µM
[13] = second compound 0.1 µM, first compound 0.316 µM
[14] = second compound 0.1 µM, first compound 1 µM
[15] = second compound 0.316 µM, first compound 0.0316 µM
[16] = second compound 0.316 µM, first compound 0.1 µM
[17] = second compound 0.316 µM, first compound 0.316 µM
[18] = second compound 0.316 µM, first compound 1 µM
[19] = second compound 1 µM, first compound 0.0316 µM
[20] = second compound 1 µM, first compound 0.1 µM
[21] = second compound 1 µM, first compound 0.316 µM
[22] = second compound 1 µM, first compound 1 µM
[23] = second compound 3.16 µM, first compound 0.0316 µM
[24] = second compound 3.16 µM, first compound 0.1 µM
[25] = second compound 3.16 µM, first compound 0.316 µM
[26] = second compound 3.16 µM, first compound 1 µM
[27] = second compound 10 µM, first compound 0.0316 µM
[28] = second compound 10 µM, first compound 0.1 µM
[29] = second compound 10 µM, first compound 0.316 µM
[30] = second compound 10 µM, first compound 1 µM
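Further: spheroids exposed to agents for 7 days before viability reading.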
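Wherever viability, T/C is given: percent of DMSO vehicle control viability so 100% = vehicle and 0% = no viable signal.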

`CC1COCCN1c1cc(C2(O)CC3CCC(C2)O3)c2cnn(-c3ccn[nH]3)c2n1` (stereo not drawn) + Cc1cccc(N(C)C(=O)C2C(O)CCN2c2nc(C)cc(C(F)(F)F)c2C#N)c1 showed an IC50 [1] of 1990 nM, an IC50 [2] of 1200 nM and an IC50 [3] of 1050 nM. For the same compound, the IC50 [4] was 1690 nM, the IC50 [5] was 1740 nM and the IC50 [6] was 1940 nM. The viability, T/C [7] was 92.1%, the viability, T/C [8] was 83.9% and the viability, T/C [9] was 64.9%. The viability, T/C [10] was 60.6%, the viability, T/C (second compound 0.0316 µM, first compound 3.16 µM) was 44.5% and the viability, T/C (second compound 0.0316 µM, first compound 10 µM) was 33.1%. The viability, T/C [11] was 94.6%, the viability, T/C [12] was 78.7% and the viability, T/C [13] was 60.9%. It also gave a viability, T/C [14] of 52.2%, a viability, T/C (second compound 0.1 µM, first compound 3.16 µM) of 44% and a viability, T/C (second compound 0.1 µM, first compound 10 µM) of 38.6%. It also gave a viability, T/C [15] of 93%, a viability, T/C [16] of 94% and a viability, T/C [17] of 64.6%. The viability, T/C [18] was 54.3%, the viability, T/C (second compound 0.316 µM, first compound 3.16 µM) was 47.4% and the viability, T/C (second compound 0.316 µM, first compound 10 µM) was 39.7%. It also gave a viability, T/C [19] of 96.3%, a viability, T/C [20] of 83.1% and a viability, T/C [21] of 66.4%. The viability, T/C [22] was 52.8%, the viability, T/C (second compound 1 µM, first compound 3.16 µM) was 47.5% and the viability, T/C (second compound 1 µM, first compound 10 µM) was 37.8%. For the same compound, the viability, T/C [23] was 98.2%, the viability, T/C [24] was 87.2% and the viability, T/C [25] was 62.3%. For the same compound, the viability, T/C [26] was 58.8%, the viability, T/C (second compound 3.16 µM, first compound 3.16 µM) was 45% and the viability, T/C (second compound 3.16 µM, first compound 10 µM) was 33.6%. For the same compound, the viability, T/C [27] was 84.6%, the viability, T/C [28] was 81.8% and the viability, T/C [29] was 69.7%. For the same compound, the viability, T/C [30] was 57.3%, the viability, T/C (second compound 10 µM, first compound 3.16 µM) was 44.9% and the viability, T/C (second compound 10 µM, first compound 10 µM) was 39.1%.
`CCc1c2c(nc3ccc(O)cc13)-c1cc3c(c(=O)n1C2)COC(=O)[C@]3(O)CC` was tested, and the viability, T/C (compound 0.00316 µM) was 79.8% and 73.5% and 71.1%, the viability, T/C (compound 0.01 µM) was 59.2% and 56% and 49.9% and the viability, T/C (compound 0.0316 µM) was 55.4% and 52.2% and 41.7%. For the same compound, the viability, T/C (compound 0.1 µM) was 45.9% and 44.3% and 37.6%, the viability, T/C (compound 0.316 µM) was 24.9% and 35.3% and 28.6% and the viability, T/C (compound 1 µM) was 7.27% and 9.92% and 8.91%. For the same compound, the IC50 (curve of compound) was 47.1 nM and 38.3 nM and 19.1 nM.
For `Cc1cccc(N(C)C(=O)C2C(O)CCN2c2nc(C)cc(C(F)(F)F)c2C#N)c1` (stereo not drawn), the viability, T/C (compound 0.0316 µM) was 105% [middle of 13 runs], the viability, T/C (compound 0.1 µM) was 102% [middle of 13 runs] and the viability, T/C (compound 0.316 µM) was 101% [middle of 13 runs]. For the same compound, the viability, T/C (compound 1 µM) was 104% [middle of 13 runs], the viability, T/C (compound 10 µM) was 102% [middle of 13 runs] and the IC50 (compound alone, run of 11/27/2023) was over 10000 nM. It also gave an IC50 (compound alone, run of 12/05/2023) of over 10000 nM.
With `CCc1c2c(nc3ccc(O)cc13)-c1cc3c(c(=O)n1C2)COC(=O)[C@]3(O)CC` + Nc1ccc(C#CCN(C(=O)Cc2ncc(C(F)(F)F)cc2C(F)(F)F)c2ccc(F)cc2)nn1 the IC50 [1] was 60.2 nM, the IC50 [2] was 48.3 nM and the IC50 [3] was 66.8 nM. It also gave an IC50 [4] of 36.3 nM, an IC50 [5] of 55.5 nM and an IC50 [6] of 49.5 nM. For the same compound, the viability, T/C (second compound 0.0316 µM, first compound 0.00316 µM) was 82.1%, the viability, T/C (second compound 0.0316 µM, first compound 0.01 µM) was 55.2% and the viability, T/C [7] was 58.4%. For the same compound, the viability, T/C [8] was 47.2%, the viability, T/C [9] was 36.4% and the viability, T/C [10] was 11.4%. It also gave a viability, T/C (second compound 0.1 µM, first compound 0.00316 µM) of 83.1%, a viability, T/C (second compound 0.1 µM, first compound 0.01 µM) of 57.4% and a viability, T/C [11] of 52%. For the same compound, the viability, T/C [12] was 48.3%, the viability, T/C [13] was 32.6% and the viability, T/C [14] was 12.6%. The viability, T/C (second compound 0.316 µM, first compound 0.00316 µM) was 72.7%, the viability, T/C (second compound 0.316 µM, first compound 0.01 µM) was 61.6% and the viability, T/C [15] was 55.8%. For the same compound, the viability, T/C [16] was 47.1%, the viability, T/C [17] was 32% and the viability, T/C [18] was 8.12%. It also gave a viability, T/C (second compound 1 µM, first compound 0.00316 µM) of 74.7%, a viability, T/C (second compound 1 µM, first compound 0.01 µM) of 55.2% and a viability, T/C [19] of 51.2%. The viability, T/C [20] was 44.3%, the viability, T/C [21] was 30.5% and the viability, T/C [22] was 14.9%. The viability, T/C (second compound 3.16 µM, first compound 0.00316 µM) was 88.7%, the viability, T/C (second compound 3.16 µM, first compound 0.01 µM) was 66.4% and the viability, T/C [23] was 54.4%. It also gave a viability, T/C [24] of 48.5%, a viability, T/C [25] of 29.6% and a viability, T/C [26] of 10.8%. The viability, T/C (second compound 10 µM, first compound 0.00316 µM) was 92.2%, the viability, T/C (second compound 10 µM, first compound 0.01 µM) was 71.2% and the viability, T/C [27] was 52.2%. For the same compound, the viability, T/C [28] was 44.2%, the viability, T/C [29] was 27.7% and the viability, T/C [30] was 9.98%.
